{"source": "patent US11214803B2", "about": "“Modulators of YAP1 expression” (Ionis Pharmaceuticals, Inc., priority 2019, dated 2022)", "assay_type_in_all_cases": "cell-based", "key": {"Yap1 mRNA [1]": {"test_system": "Yap1 mRNA", "experiment": "Antisense inhibition of human Yap1 in SNU-449 cells by modified oligonucleotides, single dose (Example 5, RTS36584)", "description": "Modified oligonucleotides with additional chemistry modifications were designed to target a Yap1 nucleic acid and were tested for their effect on Yap1 mRNA level in SNU-449 cells. The modified oligonucleotides were tested in a series of experiments that had similar culture conditions. Cultured SNU-449 cells at a density of 10,000 cells per well were treated using free uptake with 2,000 nM of modified oligonucleotide. After a treatment period of approximately 48 hours, RNA was isolated from the cells and Yap1 mRNA levels were measured by quantitative real-time RTPCR. Human primer probe set RTS36584 was used to measure mRNA levels. Yap1 mRNA levels were normalized to total RNA content, as measured by RIBOGREEN®. Results are presented in the tables below as percent control of the amount of Yap1 mRNA relative to untreated control cells (% UTC). The modified oligonucleotides with percent control values marked with an asterisk (*) target the amplicon region of the primer probe set. Additional assays may be used to measure the potency and efficacy of the modified oligonucleotides targeting the amplicon region.\nSeveral different chemistry modifications were tested, which are specified in the Chemistry Notation column of the tables below, wherein the notation “d” refers to a 2′-deoxyribose sugar, the notation “s” refers to a phosphorothioate (P═S) internucleoside linkage, the notation “k” refers to a cEt modified sugar, the notation “y” refers to a 2′-O-methyl ribose sugar, the notation “e” refers to a MOE modified sugar, and the notation “^mC” refers to a 5-methylcytosine.\n“Start site” indicates the 5′-most nucleoside to which the gapmer is targeted in the human gene sequence. “Stop site” indicates the 3′-most nucleoside to which the gapmer is targeted human gene sequence. […] Activity of the modified oligonucleotide may be defined in a different experiment."}, "Yap1 mRNA [2]": {"test_system": "Yap1 mRNA", "experiment": "Antisense inhibition of human Yap1 in A-431 cells by cEt gapmers, single dose (Example 2, RTS4814)", "details": "Yap1 mRNA as percent of untreated control, A-431 cells, 3-10-3 cEt gapmers targeting SEQ ID NO.: 1, and 2", "procedure,_shortened": "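A-431 cells (5,000/well) took up 2,000 nM 3-10-3 cEt gapmer by free uptake for ~48 h. Yap1 mRNA was quantified by qRT-PCR with primer probe set RTS4814, normalized to RIBOGREEN total RNA, and reported as % of untreated control.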"}, "Yap1 mRNA [3]": {"test_system": "Yap1 mRNA", "experiment": "Dose-dependent inhibition of human Yap1 in A-431 cells (Example 8, 10,000 cells per well, RTS4814)", "details": "free uptake, approximately 48 hours, RTS4814; for Yap1 mRNA, % UTC: A-431 cells, 10,000 cells per well; for IC50: A-431 cells, linear regression on log/linear plot", "procedure,_shortened": "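Yap1 mRNA, normalized to RIBOGREEN total RNA and expressed as % untreated control, was read with RTS4814 about 48 h after free-uptake oligonucleotide treatment of A-431 cells at 10,000 cells/well. IC50 derived by linear regression of log/linear data.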"}, "[4]": {"details": "Table 39, SNU-449 cells, 10,000 cells per well, free uptake, 2,000 nM oligonucleotide, approx. 48 hours, RTS36584, normalized to RIBOGREEN, Yap1 mRNA relative to untreated control"}, "[5]": {"details": "Table 43 experiment, SNU-449 cells, 10,000 cells per well, free uptake, 2,000 nM, approximately 48 hours, RTS36584, Yap1 mRNA normalized to RIBOGREEN, relative to untreated control cells"}, "[6]": {"details": "Table 51, Yap1 mRNA remaining as percent of untreated control (UT), SNU-449 cells, single dose"}, "[7]": {"details": "Table 50, Yap1 mRNA remaining as percent of untreated control (UT), SNU-449 cells, single dose"}}, "note": "Strand notation (5' to 3'): a small letter for the sugar, then the base; units joined by * are phosphorothioate-linked, units joined directly phosphodiester-linked; [ ] holds rarer units or linkages, { } end groups; capitals alone tell only the bases. e = 2'-O-(2-methoxyethyl) (MOE); k = constrained ethyl (cEt); [5mC] = 5-methylcytosine; d = 2'-deoxy (DNA); m = 2'-O-methyl", "data": [{"substance": "1198408 (kG*dT*dG*d[5mC]*dT*dT*dT*dG*dG*dA*dA*kG*eA*kT*e[5mC]*kT; antisense) [Compound 1198408]", "values": [{"measurement": "YAP1 (% UTC)", "setting": "Yap1 mRNA [1]; [4]", "value": 41, "unit": "% UTC"}]}, {"substance": "1198484 (antisense kG*k[5mC]*dA*d[5mC]*dT*dT*dT*dT*dA*d[5mC]*dA*eT*kT*eA*kG*eG) [Compound 1198484]", "values": [{"measurement": "YAP1 (% UTC)", "setting": "Yap1 mRNA [1]; [5]", "value": 18, "unit": "% UTC"}]}, {"substance": "1197263 (kG*kA*k[5mC]*dA*mA*d[5mC]*dT*d[5mC]*dT*dT*dA*dT*dA*kT*kG*kG) [Compound 1197263]", "values": [{"measurement": "YAP1 (% UT)", "setting": "Yap1 mRNA [1]; [6]", "value": 91, "unit": "% UT"}]}, {"substance": "1198878 (kT*kT*dT*dA*dA*dA*dG*dT*dG*dT*dA*kT*eG*kT*e[5mC]*kA; antisense) [Compound 1198878]", "values": [{"measurement": "YAP1 (% UT)", "setting": "Yap1 mRNA [1]; Yap1 mRNA, percent of untreated control, modified oligonucleotides targeting SEQ ID NO: 1 and 2, Table 47", "value": 42, "unit": "% UT"}]}, {"substance": "1198832 (kG*k[5mC]*dA*d[5mC]*dT*dT*dT*dT*dA*d[5mC]*dA*kT*eT*kA*eG*kG; antisense) [Compound 1198832]", "values": [{"measurement": "YAP1 (% UT)", "setting": "Yap1 mRNA [1]; Table 46, Yap1 mRNA as percent of untreated control, SNU-449 cells, single dose", "value": 20, "unit": "% UT"}]}, {"substance": "1197297 (GTGCUTTGGAAGATCT; cEt/MOE gapmer, phosphorothioate, 5-methylcytosine, chemistry not fully specified) [Compound 1197297]", "values": [{"measurement": "YAP1 (% UT)", "setting": "Yap1 mRNA [1]; [6]", "value": 25, "unit": "% UT"}]}, {"substance": "1198483 (antisense k[5mC]*kA*d[5mC]*dT*dT*dT*dT*dA*d[5mC]*dA*dT*eT*kA*eG*kG*eA) [Compound 1198483]", "values": [{"measurement": "YAP1 (% UTC)", "setting": "Yap1 mRNA [1]; [5]", "value": 31, "unit": "% UTC"}]}, {"substance": "1198344 (kA*kT*kA*dT*dT*dG*d[5mC]*dA*dA*dT*d[5mC]*dT*kG*eT*k[5mC]*eT; antisense) [Compound 1198344]", "values": [{"measurement": "YAP1 (% UT)", "setting": "Yap1 mRNA [1]; Table 48, Yap1 mRNA level relative to untreated control, modified oligonucleotides targeting SEQ ID NO.: 1 and 2", "value": 55, "unit": "% UT"}]}, {"substance": "1198616 (antisense kT*kT*kT*dA*dA*dA*dG*dT*dG*dT*dA*dT*kG*kT*k[5mC]*eA) [Compound 1198616]", "values": [{"measurement": "YAP1 (% UT)", "setting": "Yap1 mRNA [1]; [7]", "value": 16, "unit": "% UT"}]}, {"substance": "1198255 (k[5mC]*kA*dA*d[5mC]*dT*d[5mC]*dT*dT*dA*dT*dA*eT*eG*eG*kT*kT; antisense) [Compound 1198255]", "values": [{"measurement": "YAP1 (% UTC)", "setting": "Yap1 mRNA [1]; [5]", "value": 84, "unit": "% UTC"}]}, {"substance": "1200869 (k[5mC]*kT*kA*dA*dG*mU*dA*dA*dG*dG*dT*dT*dT*k[5mC]*k[5mC]*k[5mC]; antisense) [Compound 1200869]", "values": [{"measurement": "YAP1 (% UT)", "setting": "Yap1 mRNA [1]; Table 52, Yap1 mRNA, modified oligonucleotides targeting SEQ ID NO: 1 and 2", "value": 25, "unit": "% UT"}]}, {"substance": "1198699 (kA*kA*dA*dG*dT*dG*dT*dA*dT*dG*dT*d[5mC]*kA*eG*kA*eA; antisense) [Compound 1198699]", "values": [{"measurement": "YAP1 (% UTC)", "setting": "Yap1 mRNA [1]; Table 42 (separate experiment), SNU-449 cells, 10,000 cells per well, free uptake, 2,000 nM modified oligonucleotide, approximately 48 hours, RTS36584, normalized to RIBOGREEN, Yap1 mRNA relative to untreated control cells", "value": 30, "unit": "% UTC"}]}, {"substance": "1198350 (kT*kA*kT*dG*dT*dA*dA*dT*dA*dT*dT*dG*k[5mC]*eA*kA*eT; antisense) [Compound 1198350]", "values": [{"measurement": "YAP1 (% UT)", "setting": "Yap1 mRNA [1]; Table 49, Yap1 mRNA level relative to untreated control, modified oligonucleotides targeting SEQ ID NO.: 1 and 2", "value": 83, "unit": "% UT"}]}, {"substance": "1198434 (kT*dG*dT*dA*dA*dT*dA*dT*dT*dG*d[5mC]*kA*eA*kT*e[5mC]*kT) [Compound 1198434]", "values": [{"measurement": "YAP1 (% UTC)", "setting": "Yap1 mRNA [1]; [4]", "value": 78, "unit": "% UTC"}]}, {"substance": "1197230 (antisense kT*kG*kG*dA*mA*dA*dT*dT*dG*dT*d[5mC]*dT*d[5mC]*kA*kT*kG) [Compound 1197230]", "values": [{"measurement": "YAP1 (% UT)", "setting": "Yap1 mRNA [1]; [7]", "value": 29, "unit": "% UT"}]}, {"substance": "1198917 (k[5mC]*kA*d[5mC]*dT*dT*dT*dT*dA*d[5mC]*dA*dT*kT*dA*kG*dG*kA; antisense) [Compound 1198917]", "values": [{"measurement": "YAP1 (% UTC)", "setting": "Yap1 mRNA [1]; Table 45, Yap1 mRNA as percent of untreated control, SNU-449 cells, single dose", "value": 21, "unit": "% UTC"}]}, {"substance": "1074608 (DNA kG*kT*kT*dA*d[5mC]*dA*dT*d[5mC]*dA*dT*d[5mC]*dT*d[5mC]*kT*kT*k[5mC]) [compound 1074608]", "values": [{"measurement": "YAP1 (% UTC)", "setting": "Yap1 mRNA [2]; Table 30", "value": 5, "unit": "% UTC"}, {"measurement": "Yap1 mRNA, % UTC", "setting": "Yap1 mRNA [3]; 31.3 nM", "value": 49, "unit": "% UTC"}, {"measurement": "Yap1 mRNA, % UTC", "setting": "Yap1 mRNA [3]; 125.0 nM", "value": 20, "unit": "% UTC"}, {"measurement": "Yap1 mRNA, % UTC", "setting": "Yap1 mRNA [3]; 500.0 nM", "value": 9, "unit": "% UTC"}, {"measurement": "Yap1 mRNA, % UTC", "setting": "Yap1 mRNA [3]; 2000.00 nM", "value": 7, "unit": "% UTC"}, {"measurement": "IC50", "setting": "Yap1 mRNA [3]", "value": "< 20", "unit": "nM"}]}, {"substance": "1074577 (DNA kT*kA*kT*dT*dT*d[5mC]*dT*dG*dT*d[5mC]*dA*dT*dG*k[5mC]*kA*k[5mC]) [compound 1074577]", "values": [{"measurement": "YAP1 (% UTC)", "setting": "Yap1 mRNA [2]; Table 31", "value": 3, "unit": "% UTC"}, {"measurement": "Yap1 mRNA, % UTC", "setting": "Yap1 mRNA [3]; 31.3 nM", "value": 33, "unit": "% UTC"}, {"measurement": "Yap1 mRNA, % UTC", "setting": "Yap1 mRNA [3]; 125.0 nM", "value": 10, "unit": "% UTC"}, {"measurement": "Yap1 mRNA, % UTC", "setting": "Yap1 mRNA [3]; 500.0 nM", "value": 4, "unit": "% UTC"}, {"measurement": "Yap1 mRNA, % UTC", "setting": "Yap1 mRNA [3]; 2000.00 nM", "value": 3, "unit": "% UTC"}, {"measurement": "IC50", "setting": "Yap1 mRNA [3]", "value": "< 20", "unit": "nM"}]}]}
